Measured values: PMC2115601 (The Journal of Cell Biology, 1989)
Residues, ends and D or L forms follow the SMILES beside them.

Key:
ADP-stimulated platelets = ADP-stimulated platelets (Homo sapiens, UniProt P05106+P08514); test: Inhibition of 125I-fibrinogen binding to ADP-stimulated platelets; conditions: for Extent of inhibition of fibrinogen binding to platelets: high concentrations of peptide; for IC50: read-out: IC50 Platelets (Table III), mean of three separate experiments
endothelial cells [1] = molecular target: T1, endothelial cells (UniProt P05106+P06756); test: Inhibition of 125I-fibrinogen binding to endothelial cells in suspension; set-up: species or system human; conditions: for Extent of inhibition of fibrinogen binding to endothelial cells: high concentrations of peptide
T1 sequence (P06756 31-1048): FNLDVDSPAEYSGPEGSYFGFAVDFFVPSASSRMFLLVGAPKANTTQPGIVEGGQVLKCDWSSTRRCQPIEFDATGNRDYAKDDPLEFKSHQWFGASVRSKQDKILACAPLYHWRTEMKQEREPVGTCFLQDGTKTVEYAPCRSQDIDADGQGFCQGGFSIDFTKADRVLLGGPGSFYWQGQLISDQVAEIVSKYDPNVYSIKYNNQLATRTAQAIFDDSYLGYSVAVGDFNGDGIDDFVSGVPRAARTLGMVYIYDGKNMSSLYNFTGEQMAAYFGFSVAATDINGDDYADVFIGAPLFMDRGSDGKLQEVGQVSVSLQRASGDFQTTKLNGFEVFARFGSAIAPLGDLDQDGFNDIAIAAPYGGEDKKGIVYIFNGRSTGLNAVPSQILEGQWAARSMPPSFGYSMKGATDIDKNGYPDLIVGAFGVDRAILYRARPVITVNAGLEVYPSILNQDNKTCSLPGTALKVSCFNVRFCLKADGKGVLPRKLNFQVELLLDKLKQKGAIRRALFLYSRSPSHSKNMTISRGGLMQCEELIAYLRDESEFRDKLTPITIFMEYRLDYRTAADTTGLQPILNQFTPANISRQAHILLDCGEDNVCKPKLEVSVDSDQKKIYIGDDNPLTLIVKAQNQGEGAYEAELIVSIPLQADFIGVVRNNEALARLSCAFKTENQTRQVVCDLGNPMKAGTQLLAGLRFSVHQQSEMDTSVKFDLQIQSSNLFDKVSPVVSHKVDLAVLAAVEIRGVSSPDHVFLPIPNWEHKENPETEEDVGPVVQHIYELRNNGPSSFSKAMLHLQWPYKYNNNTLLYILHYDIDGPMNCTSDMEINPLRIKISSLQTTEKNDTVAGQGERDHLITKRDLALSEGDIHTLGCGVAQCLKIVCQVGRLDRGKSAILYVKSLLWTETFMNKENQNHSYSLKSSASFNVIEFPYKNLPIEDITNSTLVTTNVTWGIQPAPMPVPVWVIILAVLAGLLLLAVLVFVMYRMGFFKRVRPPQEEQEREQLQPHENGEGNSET
T1 sequence (P05106 27-788): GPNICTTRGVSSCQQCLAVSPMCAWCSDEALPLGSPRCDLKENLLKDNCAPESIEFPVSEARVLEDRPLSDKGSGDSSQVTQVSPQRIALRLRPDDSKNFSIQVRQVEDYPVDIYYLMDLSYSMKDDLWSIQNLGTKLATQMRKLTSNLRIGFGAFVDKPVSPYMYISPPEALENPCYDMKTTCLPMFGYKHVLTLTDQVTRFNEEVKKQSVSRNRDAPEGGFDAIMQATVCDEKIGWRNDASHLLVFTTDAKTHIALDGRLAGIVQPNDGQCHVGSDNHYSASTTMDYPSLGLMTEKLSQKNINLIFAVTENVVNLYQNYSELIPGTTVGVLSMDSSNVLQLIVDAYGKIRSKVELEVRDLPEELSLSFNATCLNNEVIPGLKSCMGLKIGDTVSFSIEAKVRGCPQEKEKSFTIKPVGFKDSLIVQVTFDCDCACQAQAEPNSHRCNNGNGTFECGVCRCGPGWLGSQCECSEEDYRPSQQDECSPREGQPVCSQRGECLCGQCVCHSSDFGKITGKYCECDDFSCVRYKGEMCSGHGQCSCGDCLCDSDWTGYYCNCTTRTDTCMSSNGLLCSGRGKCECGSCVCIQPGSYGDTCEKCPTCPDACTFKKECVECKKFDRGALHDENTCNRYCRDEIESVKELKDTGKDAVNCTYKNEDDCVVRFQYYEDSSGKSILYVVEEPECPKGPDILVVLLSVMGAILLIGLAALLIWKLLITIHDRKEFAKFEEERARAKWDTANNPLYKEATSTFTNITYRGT
T1 sequence (P02671 36-866 partner): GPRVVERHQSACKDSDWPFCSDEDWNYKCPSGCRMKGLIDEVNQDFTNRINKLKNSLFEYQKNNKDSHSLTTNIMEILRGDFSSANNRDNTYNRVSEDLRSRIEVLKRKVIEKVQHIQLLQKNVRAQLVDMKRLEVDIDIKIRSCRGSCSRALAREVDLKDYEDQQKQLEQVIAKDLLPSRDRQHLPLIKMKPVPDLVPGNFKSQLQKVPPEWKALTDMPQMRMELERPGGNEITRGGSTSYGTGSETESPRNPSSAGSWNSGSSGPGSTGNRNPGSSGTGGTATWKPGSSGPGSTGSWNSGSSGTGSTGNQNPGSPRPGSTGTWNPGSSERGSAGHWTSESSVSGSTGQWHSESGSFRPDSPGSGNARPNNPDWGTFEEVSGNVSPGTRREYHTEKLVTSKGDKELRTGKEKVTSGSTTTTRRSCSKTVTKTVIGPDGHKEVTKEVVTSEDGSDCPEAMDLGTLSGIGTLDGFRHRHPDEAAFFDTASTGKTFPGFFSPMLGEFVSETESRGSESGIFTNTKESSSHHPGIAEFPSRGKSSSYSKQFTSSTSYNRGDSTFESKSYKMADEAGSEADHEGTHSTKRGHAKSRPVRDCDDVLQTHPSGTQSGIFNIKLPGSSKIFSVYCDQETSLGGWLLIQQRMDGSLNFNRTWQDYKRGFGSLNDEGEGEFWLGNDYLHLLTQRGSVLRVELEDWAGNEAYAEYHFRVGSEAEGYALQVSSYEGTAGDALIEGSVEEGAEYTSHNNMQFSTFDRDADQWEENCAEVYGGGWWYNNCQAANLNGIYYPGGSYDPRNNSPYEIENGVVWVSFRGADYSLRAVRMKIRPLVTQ
T1 sequence (P02675 45-491 partner): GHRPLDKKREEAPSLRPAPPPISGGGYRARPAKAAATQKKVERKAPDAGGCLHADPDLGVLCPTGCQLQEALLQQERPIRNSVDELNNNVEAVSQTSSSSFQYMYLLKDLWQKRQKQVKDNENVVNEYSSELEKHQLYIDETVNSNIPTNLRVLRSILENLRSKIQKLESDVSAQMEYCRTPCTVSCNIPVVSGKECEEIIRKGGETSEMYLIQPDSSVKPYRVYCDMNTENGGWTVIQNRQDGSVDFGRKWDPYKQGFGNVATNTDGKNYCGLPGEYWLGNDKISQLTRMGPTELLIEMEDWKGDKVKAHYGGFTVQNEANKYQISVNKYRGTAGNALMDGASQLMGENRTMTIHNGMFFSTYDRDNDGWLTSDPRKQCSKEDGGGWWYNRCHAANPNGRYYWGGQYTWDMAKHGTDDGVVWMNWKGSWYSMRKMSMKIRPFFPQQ
T1 sequence (P02679 27-453 partner): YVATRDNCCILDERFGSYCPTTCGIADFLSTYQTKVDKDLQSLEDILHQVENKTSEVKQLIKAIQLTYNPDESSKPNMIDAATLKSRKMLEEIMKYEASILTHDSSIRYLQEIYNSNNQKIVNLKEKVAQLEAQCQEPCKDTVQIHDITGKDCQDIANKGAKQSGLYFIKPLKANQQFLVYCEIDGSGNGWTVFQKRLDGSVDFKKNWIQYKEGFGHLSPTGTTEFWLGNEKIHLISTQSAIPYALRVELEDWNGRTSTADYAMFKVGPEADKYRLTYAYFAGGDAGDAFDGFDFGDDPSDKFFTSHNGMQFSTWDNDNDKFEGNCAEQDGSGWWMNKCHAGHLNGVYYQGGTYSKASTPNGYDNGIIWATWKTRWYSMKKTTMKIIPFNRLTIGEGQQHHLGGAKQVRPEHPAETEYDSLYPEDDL

washed platelets = test: Fibrinogen-dependent aggregation of washed platelets; format: cell-based, human; conditions: 2 mM peptide, 20 μM ADP, medium 199
endothelial cells [2] = molecular target: T1, endothelial cells; test: Endothelial cell spreading on fibrinogen; format: cell-based, human; conditions: 2 mM peptide, medium 199, 2% BSA

ADP-stimulated platelets, sequence (P08514 32-1039): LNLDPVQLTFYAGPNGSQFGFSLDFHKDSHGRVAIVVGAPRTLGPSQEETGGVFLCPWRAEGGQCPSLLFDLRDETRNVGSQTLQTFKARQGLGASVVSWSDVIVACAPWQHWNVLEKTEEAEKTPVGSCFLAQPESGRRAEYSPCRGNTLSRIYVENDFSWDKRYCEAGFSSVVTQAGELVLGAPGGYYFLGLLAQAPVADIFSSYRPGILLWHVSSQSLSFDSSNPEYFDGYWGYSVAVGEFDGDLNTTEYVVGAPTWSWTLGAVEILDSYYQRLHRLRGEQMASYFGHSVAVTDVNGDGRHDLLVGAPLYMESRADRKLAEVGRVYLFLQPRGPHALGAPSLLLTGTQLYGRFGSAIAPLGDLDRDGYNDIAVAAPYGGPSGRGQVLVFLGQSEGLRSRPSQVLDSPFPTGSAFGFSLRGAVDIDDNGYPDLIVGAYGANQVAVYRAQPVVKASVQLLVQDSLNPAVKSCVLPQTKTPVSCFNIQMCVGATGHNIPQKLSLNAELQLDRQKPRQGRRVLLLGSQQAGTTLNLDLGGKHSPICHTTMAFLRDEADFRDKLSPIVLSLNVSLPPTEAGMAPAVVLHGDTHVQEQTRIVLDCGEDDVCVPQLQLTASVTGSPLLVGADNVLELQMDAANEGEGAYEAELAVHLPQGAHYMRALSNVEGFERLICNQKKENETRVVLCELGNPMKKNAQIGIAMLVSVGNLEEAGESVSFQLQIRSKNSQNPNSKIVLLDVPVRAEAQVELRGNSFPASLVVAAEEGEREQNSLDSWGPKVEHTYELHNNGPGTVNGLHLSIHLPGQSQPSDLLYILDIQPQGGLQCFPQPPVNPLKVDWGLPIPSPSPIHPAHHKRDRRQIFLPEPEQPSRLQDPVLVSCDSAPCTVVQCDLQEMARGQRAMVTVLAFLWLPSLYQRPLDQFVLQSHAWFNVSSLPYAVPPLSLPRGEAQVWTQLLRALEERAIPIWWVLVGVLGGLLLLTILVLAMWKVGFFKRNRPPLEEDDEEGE
ADP-stimulated platelets, sequence (P05106 27-788): as the sequence (P05106 27-788) above
ADP-stimulated platelets, sequence (P02671 36-866 partner): as the sequence (P02671 36-866 partner) above
ADP-stimulated platelets, sequence (P02675 45-491 partner): as the sequence (P02675 45-491 partner) above
ADP-stimulated platelets, sequence (P02679 27-453 partner): as the sequence (P02679 27-453 partner) above

| Extent of inhibition of fibrinogen binding to platelets (ADP-stimulated platelets) | Extent of inhibition of fibrinogen binding to endothelial cells (endothelial cells [1]) | Compound | IC50 (ADP-stimulated platelets) [µM] | Potency on endothelial cells relative to platelets (endothelial cells [1]; fibrinogen binding inhibition) | Inhibition Platelet aggregation (washed platelets) [%] | Endothelial cell spreading (endothelial cells [2]) |
| --- | --- | --- | --- | --- | --- | --- |
| complete | only partially inhibited | CC(C)[C@H](NC(=O)[C@H](CC(=O)O)NC(=O)CNC(=O)[C@H](C)NC(=O)[C@H](CCC(N)=O)NC(=O)[C@H](CCCCN)NC(=O)[C@H](C)NC(=O)CNC(=O)CN)C(=O)O [G9] (H-GGAKQAGDV-OH; N-terminus assumed) | – | – | – | – |
| complete | only partially inhibited | CC(C)C[C@H](NC(=O)[C@H](Cc1c[nH]cn1)NC(=O)[C@@H](N)Cc1c[nH]cn1)C(=O)NCC(=O)NCC(=O)N[C@@H](C)C(=O)N[C@@H](CCCCN)C(=O)N[C@@H](CCC(N)=O)C(=O)N[C@@H](C)C(=O)NCC(=O)N[C@@H](CC(=O)O)C(=O)N[C@H](C(=O)O)C(C)C [H12] (H-HHLGGAKQAGDV-OH; N-terminus assumed) | – | – | – | – |
| – | – | CC(C)[C@H](NC(=O)[C@H](CC(=O)O)NC(=O)CNC(=O)[C@H](C)NC(=O)[C@H](CCC(N)=O)NC(=O)[C@@H](N)Cc1c[nH]cn1)C(=O)O [HQAGDV] (H-HQAGDV-OH; N-terminus assumed) | > 1000 | at least fivefold | 0 | + + |
| – | – | CC(C)[C@H](NC(=O)[C@H](CC(=O)O)NC(=O)CNC(=O)[C@H](C)NC(=O)[C@H](CCC(N)=O)NC(=O)[C@@H](N)CCCNC(=N)N)C(=O)O [RQAGDV] (H-RQAGDV-OH; N-terminus assumed) | > 1000 | – | – | – |
